Molecules are shown by their SMILES.

Test [1] deals with T1, PfA-M17 (Plasmodium falciparum, UniProt Q8IL11).
T1 construct: made in house
The test is described as follows: Recombinant aminopeptidase fluorescence assay (H-Leu-NHMec). The test is classed as biochemical, P. falciparum. Conditions: Pf M17, Morrison equation; read-out: Ki^(app) ± SEM. Here is the method:
(§1) Inhibition of aminopeptidase activity assays were performed against nine aminopeptidases: the M1 alanyl and M17 leucyl aminopeptidases from P. falciparum (PfA-M1; PfA-M17), P. vivax (Pv-M1; Pv-M17), and P. berghei (Pb-M1; Pb-M17), and three human M1 homologs: LTA4H (OriGene TP307617), ERAP1 (OriGene TP314469), and ERAP2 (Creative BioMart ERAP2-304H). The Plasmodium enzymes were produced recombinantly as described previously ([16], [17]), and the human recombinant enzymes were purchased from commercial suppliers as indicated.
(§2) The concentration of H-Leu-NHMec in the assay was held constant for each enzyme and ranged from 10 to 100 µM, depending on the enzyme. Reactions were measured at 37°C in white 384-well plates in a total volume of 25 or 50 µL using a spectrofluorimeter (BMG FLUOstar) with excitation at 355 nm and emission at 460 nm. The fluorescence signal was continuously monitored until a final steady-state velocity, v, was obtained. Inhibition constants were calculated from biological triplicates made from three different protein preparations.
(§3) Substrate concentrations were selected to allow sensitive detection of enzyme activity while not exceeding the Km for each enzyme. A compound concentration range was selected to obtain a complete inhibition curve (0%–100 %) in biological triplicate. Where possible, the Ki values were calculated by plotting the initial rates versus inhibitor concentration and fitting to the Morrison equation for tight-binding inhibitors in GraphPad Prism (V.8.4.1; non-linear regression method).

The target of test [2] is Pv-M1 (Plasmodium vivax, UniProt A5JZA9). The test is described as above. Type of test: biochemical, P. vivax. The procedure: as §1, §2, §3
Sequence of Pv-M1 (A5JZA9 entry or part of it): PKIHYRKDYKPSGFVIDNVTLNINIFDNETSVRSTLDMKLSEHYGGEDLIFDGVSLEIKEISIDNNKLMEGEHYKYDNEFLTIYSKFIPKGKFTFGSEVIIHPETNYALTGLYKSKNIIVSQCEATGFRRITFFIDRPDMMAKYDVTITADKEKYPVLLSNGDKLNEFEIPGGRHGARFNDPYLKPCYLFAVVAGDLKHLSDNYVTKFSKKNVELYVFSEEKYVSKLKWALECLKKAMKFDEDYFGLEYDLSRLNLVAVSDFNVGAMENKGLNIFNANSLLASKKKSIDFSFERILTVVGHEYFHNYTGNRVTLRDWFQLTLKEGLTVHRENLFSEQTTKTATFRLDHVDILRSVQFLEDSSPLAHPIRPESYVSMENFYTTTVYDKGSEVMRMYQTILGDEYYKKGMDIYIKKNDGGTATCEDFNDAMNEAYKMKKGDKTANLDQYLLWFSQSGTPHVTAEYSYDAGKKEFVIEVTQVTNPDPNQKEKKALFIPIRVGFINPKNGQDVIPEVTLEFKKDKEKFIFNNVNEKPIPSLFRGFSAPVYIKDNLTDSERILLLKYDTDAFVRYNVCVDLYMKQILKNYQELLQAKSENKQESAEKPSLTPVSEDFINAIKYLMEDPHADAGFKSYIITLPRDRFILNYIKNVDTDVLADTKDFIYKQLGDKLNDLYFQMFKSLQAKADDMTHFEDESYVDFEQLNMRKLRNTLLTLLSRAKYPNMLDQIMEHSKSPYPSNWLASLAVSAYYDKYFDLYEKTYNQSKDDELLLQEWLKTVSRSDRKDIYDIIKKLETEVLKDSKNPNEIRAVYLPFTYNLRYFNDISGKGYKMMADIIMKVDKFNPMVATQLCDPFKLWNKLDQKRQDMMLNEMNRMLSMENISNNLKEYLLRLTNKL
The target of test [3] is T2, human leukotriene A4 hydrolase (LTA4H) (Homo sapiens, UniProt P09960).
T2 construct: purchased OriGene TP307617
T2 sequence (P09960 1-611): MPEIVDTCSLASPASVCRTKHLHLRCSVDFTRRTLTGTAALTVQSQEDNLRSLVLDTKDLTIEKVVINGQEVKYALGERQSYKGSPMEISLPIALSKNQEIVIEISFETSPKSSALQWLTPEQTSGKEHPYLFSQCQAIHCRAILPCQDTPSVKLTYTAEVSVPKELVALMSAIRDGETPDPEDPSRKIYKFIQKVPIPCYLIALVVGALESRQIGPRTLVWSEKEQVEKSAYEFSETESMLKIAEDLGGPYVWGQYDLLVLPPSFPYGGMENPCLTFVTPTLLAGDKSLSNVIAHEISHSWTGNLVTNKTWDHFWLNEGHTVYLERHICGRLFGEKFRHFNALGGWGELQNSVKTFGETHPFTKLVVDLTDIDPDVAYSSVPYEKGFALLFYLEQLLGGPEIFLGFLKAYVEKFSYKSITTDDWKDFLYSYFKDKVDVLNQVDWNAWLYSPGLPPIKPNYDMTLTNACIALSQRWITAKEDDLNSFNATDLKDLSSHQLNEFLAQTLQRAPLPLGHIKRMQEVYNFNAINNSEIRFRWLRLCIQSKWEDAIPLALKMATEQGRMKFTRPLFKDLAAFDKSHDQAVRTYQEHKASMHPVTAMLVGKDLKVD
The test is described as follows: Recombinant aminopeptidase fluorescence assay (H-Ala-NHMec). The settings on record: for inhibition at 1.25 µM: 1.25 µM compound; for inhibition at 10 µM: 10 µM compound; for inhibition at 500 µM: 500 µM compound; for inhibition at 1000 µM: 1000 µM compound. Type of test: biochemical. Here is the method: as §1
Reactions were measured at 37°C in white 384-well plates in a total volume of 25 or 50 µL using a spectrofluorimeter (BMG FLUOstar) with excitation at 355 nm and emission at 460 nm. The fluorescence signal was continuously monitored until a final steady-state velocity, v, was obtained. Inhibition constants were calculated from biological triplicates made from three different protein preparations.
as §3

Test [4] has as its target T3, ERAP1 (Homo sapiens, UniProt Q9NZ08).
T3 construct: purchased OriGene TP314469
The test is described as follows: Recombinant aminopeptidase fluorescence assay (H-Leu-NHMec). The test is classed as biochemical. Conditions: for inhibition at 1.25 µM: ERAP1, 1.25 µM compound; for inhibition at 10 µM: ERAP1, 10 µM compound; for inhibition at 500 µM: ERAP1, 500 µM compound; for inhibition at 1000 µM: ERAP1, 1000 µM compound. Here is the method:
as §1, §2, §3

The target in test [5] is T4, ERAP2 (Homo sapiens, UniProt Q6P179).
T4 construct: purchased Creative BioMart ERAP2-304H
T4 sequence (Q6P179 whole entry): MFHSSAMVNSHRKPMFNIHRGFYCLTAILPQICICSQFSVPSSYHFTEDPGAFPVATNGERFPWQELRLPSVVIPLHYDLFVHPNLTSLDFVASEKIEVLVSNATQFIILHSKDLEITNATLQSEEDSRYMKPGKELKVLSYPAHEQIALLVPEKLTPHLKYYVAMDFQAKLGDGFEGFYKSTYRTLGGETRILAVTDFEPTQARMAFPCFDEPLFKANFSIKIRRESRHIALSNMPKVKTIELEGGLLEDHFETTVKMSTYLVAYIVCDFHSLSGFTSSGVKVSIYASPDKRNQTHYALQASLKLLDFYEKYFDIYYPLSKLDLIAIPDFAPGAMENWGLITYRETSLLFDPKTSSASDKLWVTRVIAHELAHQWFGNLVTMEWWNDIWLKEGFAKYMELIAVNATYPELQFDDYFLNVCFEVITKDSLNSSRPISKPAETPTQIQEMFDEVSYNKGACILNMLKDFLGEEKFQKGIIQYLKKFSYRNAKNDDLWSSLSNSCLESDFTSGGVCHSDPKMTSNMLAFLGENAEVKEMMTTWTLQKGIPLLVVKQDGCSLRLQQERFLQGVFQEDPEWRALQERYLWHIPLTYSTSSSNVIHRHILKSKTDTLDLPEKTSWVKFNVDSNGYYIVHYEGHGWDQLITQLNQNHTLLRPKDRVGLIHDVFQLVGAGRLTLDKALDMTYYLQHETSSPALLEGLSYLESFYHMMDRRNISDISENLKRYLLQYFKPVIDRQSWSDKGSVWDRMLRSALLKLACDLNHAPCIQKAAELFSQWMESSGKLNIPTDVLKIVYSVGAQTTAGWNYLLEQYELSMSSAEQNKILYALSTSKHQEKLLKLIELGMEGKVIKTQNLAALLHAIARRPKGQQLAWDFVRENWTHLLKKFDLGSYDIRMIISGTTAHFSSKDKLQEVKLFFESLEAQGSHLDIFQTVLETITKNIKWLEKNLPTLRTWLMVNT
The description is as above. Type of test: biochemical. Conditions: for inhibition at 1.25 µM: ERAP2, 1.25 µM compound; for inhibition at 10 µM: ERAP2, 10 µM compound; for inhibition at 500 µM: ERAP2, 500 µM compound; for inhibition at 1000 µM: ERAP2, 1000 µM compound. The procedure: as §1, §2, §3

In test [6] the test system is Pf3D7. Nature of the test: 72 h ring killing assay (SYBR Green I). Type of test: cell-based, P. falciparum. Conditions: Plasmodium falciparum, Pf3D7 ring stage. Here is the method:
Viability assays were performed as previously described ([7]). Sorbitol-synchronized Pf3D7 (a laboratory strain which is broadly sensitive to standard antimalarial drugs) at ring stages was cultured in the presence of drug serially diluted across a 96-well plate at 0.5% parasitemia and 2% hematocrit. Cultures were grown for 72 h before being placed at −80°C. After thawing, cultures were incubated with equal volumes of lysis buffer (20 mM Tris [pH 7.5], 5 mM EDTA, 0.008% [wt/vol] saponin, and 0.008% [vol/vol] Triton x-100) containing 0.2 µL/mL SYBR Green I Nucleic Acid Gel Stain (10,000× in dimethyl sulfoxide [DMSO]; Thermo Fisher). After 1 h incubation, fluorescence intensity was read on a Glomax Explorer Fully Loaded (Promega) at emission wavelengths of 500–550 nm and an excitation wavelength of 475 nm. Graphs were generated using GraphPad Prism (V.8.4.1). Parasite survival was compared with vehicle-treated cultures in three biological replicates performed in triplicate. This EC50 was used in asexual P. falciparum assays unless otherwise stated.

Test [7] relates to Pf3D7. Nature of the test: Parasite reduction ratio assay. The test is classed as cell-based, P. falciparum. Here is the method:
Assays were performed as described previously with some alterations ([37]). […] Specifically, media containing compound was placed in wells every 24 h for up 120 h. […] Parasite growth was measured at day 21 using SYBR green I as described above. Fluorescence was used to determine at what treatment day wells became positive for growth when compared with the well before it; greater than double the fluorescence was determined to be a positive well. […] Experiments were performed in two or three biological replicates in quadruplicate.

Test [8] concerns P. berghei ANKA. Nature of the test: P. berghei rodent malaria 4-day Peters' suppressive test. Type of test: in vivo, P. berghei (Balb/c mice). The settings on record: 50 mg/kg oral on days 0, 1, 2, 3 post-infection, read on day 4. Here is the method:
Female Balb/c mice at 6 weeks of age in groups of 4-5 were infected intraperitoneally with 2 × 10^7 P. berghei ANKA-infected erythrocytes. […] Parasitemia was assessed by visualizing Giemsa-stained thin blood smears by microscopy and a minimum of 1,000 RBCs was counted. […] University Animal Ethics Committee.

Setting [9] is: read-out: Inhibition of aminopeptidase activity.

T3 sequence (Q9NZ08 whole entry): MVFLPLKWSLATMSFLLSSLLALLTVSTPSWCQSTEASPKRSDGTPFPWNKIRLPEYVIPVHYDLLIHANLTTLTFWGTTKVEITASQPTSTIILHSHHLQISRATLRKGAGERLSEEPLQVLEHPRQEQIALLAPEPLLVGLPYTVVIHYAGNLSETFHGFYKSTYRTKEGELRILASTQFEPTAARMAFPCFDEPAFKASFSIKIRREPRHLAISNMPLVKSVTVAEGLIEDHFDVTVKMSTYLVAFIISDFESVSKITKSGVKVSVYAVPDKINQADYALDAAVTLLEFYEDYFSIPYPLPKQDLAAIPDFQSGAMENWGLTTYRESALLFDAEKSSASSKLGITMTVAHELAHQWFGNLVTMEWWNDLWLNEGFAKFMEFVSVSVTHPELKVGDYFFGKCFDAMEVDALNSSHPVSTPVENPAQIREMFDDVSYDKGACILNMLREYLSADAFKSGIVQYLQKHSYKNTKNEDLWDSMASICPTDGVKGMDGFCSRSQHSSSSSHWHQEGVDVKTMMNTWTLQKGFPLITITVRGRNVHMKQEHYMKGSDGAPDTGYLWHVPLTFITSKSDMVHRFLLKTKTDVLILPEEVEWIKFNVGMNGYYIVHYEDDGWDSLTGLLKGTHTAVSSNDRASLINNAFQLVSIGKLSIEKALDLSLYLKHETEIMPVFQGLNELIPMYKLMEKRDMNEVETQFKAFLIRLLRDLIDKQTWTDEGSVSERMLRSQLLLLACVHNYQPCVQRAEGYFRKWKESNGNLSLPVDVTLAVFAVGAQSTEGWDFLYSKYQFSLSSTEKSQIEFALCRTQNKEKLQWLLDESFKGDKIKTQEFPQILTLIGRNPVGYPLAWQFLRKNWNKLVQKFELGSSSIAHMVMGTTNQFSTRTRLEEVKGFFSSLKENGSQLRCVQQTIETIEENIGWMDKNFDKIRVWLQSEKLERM
T1 sequence (Q8IL11 84-605): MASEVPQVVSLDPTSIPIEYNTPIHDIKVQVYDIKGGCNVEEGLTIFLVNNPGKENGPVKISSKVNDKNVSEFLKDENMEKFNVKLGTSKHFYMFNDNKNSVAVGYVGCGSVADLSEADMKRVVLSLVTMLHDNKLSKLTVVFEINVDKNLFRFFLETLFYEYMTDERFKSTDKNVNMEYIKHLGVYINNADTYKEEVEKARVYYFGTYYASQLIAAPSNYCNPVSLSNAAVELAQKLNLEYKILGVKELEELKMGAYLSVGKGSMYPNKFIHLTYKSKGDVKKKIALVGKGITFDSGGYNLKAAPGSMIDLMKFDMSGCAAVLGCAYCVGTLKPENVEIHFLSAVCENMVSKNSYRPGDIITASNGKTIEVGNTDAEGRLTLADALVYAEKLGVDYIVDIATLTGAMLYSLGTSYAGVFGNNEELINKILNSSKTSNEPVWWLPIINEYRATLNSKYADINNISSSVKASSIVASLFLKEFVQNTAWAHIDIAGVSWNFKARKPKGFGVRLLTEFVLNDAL

By inhibition is commonly meant how much of the control response was suppressed. What is called EC50 is the concentration at which the effect is half-maximal. Higher therefore signals a less potent agent. For `CC(C)(C)CC(=O)NC(C(=O)NO)c1ccc(-c2cc(F)c(F)c(F)c2)cc1` (centres unmarked) [MMV1557817, N-(2-(hydroxyamino)−2-oxo-1-(3′,4′,5′-trifluoro-[1,1′-biphenyl]-4-yl)ethyl)-3,3-dimethylbutanamide], the Ki in test [1] is 112 nM. In addition, the Ki in test [2] was found to be 19 nM. Also, in test [2] (setting [9]), the inhibition at 1.25 µM was determined as 96% and the inhibition at 10 µM stood at 100%. In addition, in test [3], the inhibition at 1.25 µM was found to be 18%, the inhibition at 10 µM was found to be 16%, the inhibition at 500 µM was 71% and the inhibition at 1000 µM came out at 87%. For the same molecule, in test [4], the inhibition at 1.25 µM is 0%, the inhibition at 10 µM came out at 0%, the inhibition at 500 µM came to 75% and the inhibition at 1000 µM worked out at 98%. In test [5], the inhibition at 1.25 µM was 7%, the inhibition at 10 µM is 0%, the inhibition at 500 µM worked out at 99.1% and the inhibition at 1000 µM was 100%. The molecule further returned a concentration giving a half-maximal response (EC50) in test [6] of 39 nM. In addition, in test [7] (Pf3D7, 10× EC50), the “99.9% PCT” value is 86 h and the Lag phase came out at 72 h. For the same molecule, the “Log (PRR)” value in test [7] (Pf3D7, 10× EC50, over one cycle) is 2.2 ± 0.2. Further, in test [8], the “parasite reduction compared with vehicle control” value was determined as 95.4%.
As for `C[C@H]1[C@H](OC(=O)CCC(=O)O)O[C@@H]2O[C@@]3(C)CC[C@H]4[C@H](C)CC[C@@H]1[C@@]24OO3` [artesunate], in test [2] (setting [9]), the inhibition at 1.25 µM was 2.1%, the inhibition at 10 µM stood at 23.6%, the inhibition at 500 µM stood at 74% and the inhibition at 1000 µM stood at 68.2%. Further, in test [3], the inhibition at 1.25 µM came to 0%, the inhibition at 10 µM is 12.8%, the inhibition at 500 µM was determined as 20.2% and the inhibition at 1000 µM came out at 36%. In addition, in test [4], the inhibition at 1.25 µM is 0%, the inhibition at 10 µM stood at 0%, the inhibition at 500 µM amounted to 0% and the inhibition at 1000 µM was determined as 0%. Further, in test [5], the inhibition at 1.25 µM was determined as 0%, the inhibition at 10 µM amounted to 0%, the inhibition at 500 µM turned out to be 0% and the inhibition at 1000 µM turned out to be 0%. The EC50 in test [6] stood at 4 nM.

(Values after publication PMC11237774, “On-target, dual aminopeptidase inhibition provides cross-species antimalarial activity” (mBio, 2024).)
